Columns and labels:
[1] = cited from earlier work
PC-3 cells = conditions: cited from earlier work
[2] = clinical observations during pelvic radiation for prostate carcinoma; assay type: in vivo, patients
From the text: The present invention originated with observations made during pelvic radiation for prostate carcinoma.

[3] = PC-3 cells irradiated in the presence or absence of the inhibitor

In the case of `NCCCNCCSP(=O)(O)O` [Ethiol], the “dry mouth following radiation treatment” value ([1]; head and neck cancer) is given as “decrease the dry mouth” and the acute mucosal effects ([1]; radiotherapy) is given as “does not limit acute mucosal effects”.
For `CS(=O)(=O)Nc1ccc([N+](=O)[O-])cc1OC1CCCCC1` [NS-398], the “prostaglandin (PGE(2)) level in irradiated cells” value (PC-3 cells; PC-3 cells irradiated in the presence of the inhibitor) is listed as “reduced PGE(2) levels”, the apoptosis (PC-3 cells; [3]) is listed as “no differences” and the cell cycle distribution (PC-3 cells; [3]) is listed as “no differences”.
For `CS(=O)(=O)c1ccc(C2=C(c3ccccc3)C(=O)OC2)cc1` [Vioxx, rofecoxib], the “fatigue associated with radiotherapy” value [2] was “decrease” and the “acute mucosal effects of radiation” value ([2]; urinary and gastrointestinal tracts, during radiotherapy) was “decrease the acute mucosal effects of radiation”.
